According to paper PMC11790914, “Chemogenomics for steroid hormone receptors (NR3)” (Communications Chemistry, 2025):
Where “and” joins values, the source holds several entries; their conditions need not be identical. Equal entries are not always repeated.

What was measured:
BRPF1 = biological target: T1, BRPF1 (Homo sapiens, UniProt P55201); experiment: Liability panel screening by DSF: BRPF1; assay type: binding; details: DSF, 20 µM, n=2; read-out: Mean ΔTM BRPF1
T1 construct: This panel comprised ten highly ligandable kinases and bromodomains; made in house
T1 sequence (P55201 628-732 limits assumed): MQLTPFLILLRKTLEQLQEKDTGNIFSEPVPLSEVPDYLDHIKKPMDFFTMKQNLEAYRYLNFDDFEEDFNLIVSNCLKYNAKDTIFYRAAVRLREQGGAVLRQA
Description: (§1) Reference ligands are listed in the methods section.
(§2) In-house produced recombinantly expressed proteins[62] of the liability panel targets were diluted in a buffer containing 10 mM HEPES (pH 7.5) and 500 mM NaCl to a concentration of 2 µM. SYPRO Orange (Invitrogen, Carlsbad, California, USA; #S6650) as a fluorescence probe was added at a 1:1000 dilution to the proteins. […] Temperature-dependent unfolding profiles were measured on a QuantStudio™ 5 real-time PCR machine (Thermo Fisher Scientific, Waltham, Massachusetts, USA; #A28140). […] The temperature was increased 3 °C per minute to a maximum temperature of 85 °C. Experiments were run as technical duplicates. […] Data were analyzed with the internal Thermal Shift Software (version 1.4, Thermo Fisher Scientific) using the Boltzmann equitation to determine the inflection point of the transition curve. Differences in melting temperature are given as ∆Tm in K. […]
(§3) scanning fluorimetry (DSF).
(§4) a concentration of 20 µM.

BRD4 = biological target: T2, BRD4 (Homo sapiens, UniProt O60885); experiment: Liability panel screening by DSF: BRD4; assay type: binding; details: DSF, 20 µM, n=2; read-out: Mean ΔTM BRD4
T2 construct: This panel comprised ten highly ligandable kinases and bromodomains; made in house
Description: as §1, §2, §3, §4

TRIM24 = biological target: T3, TRIM24 (Homo sapiens, UniProt O15164); experiment: Liability panel screening by DSF: TRIM24; assay type: binding; details: DSF, 20 µM, n=2; read-out: Mean ΔTM TRIM24
T3 construct: This panel comprised ten highly ligandable kinases and bromodomains; made in house
T3 sequence (O15164 899-1004 limits assumed): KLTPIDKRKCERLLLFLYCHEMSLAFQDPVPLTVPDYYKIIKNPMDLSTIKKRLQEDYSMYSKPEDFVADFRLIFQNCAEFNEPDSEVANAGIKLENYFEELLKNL
Description: as §1, §2, §3, §4

ABL1 = biological target: T4, ABL1 (Homo sapiens, UniProt P00519); experiment: Liability panel screening by DSF: ABL1; assay type: binding; details: DSF, 20 µM, n=2; read-out: Mean ΔTM ABL1
T4 construct: made in house
Description: as §1, §2, §3, §4

FGFR3 = biological target: T5, FGFR3 (Homo sapiens, UniProt P22607); experiment: Liability panel screening by DSF: FGFR3; assay type: binding; details: DSF, 20 µM, n=2; read-out: Mean ΔTM FGFR3
T5 construct: made in house
Description: as §1, §2, §3, §4

GSK3B = biological target: T6, GSK3B (Homo sapiens, UniProt P49841); experiment: Liability panel screening by DSF: GSK3B; assay type: binding; details: DSF, 20 µM, n=2; read-out: Mean ΔTM GSK3B
T6 construct: made in house

HEK293T cells [1] = experiment: Cytotoxicity: metabolic activity (WST-8 / CCK-8 assay); details: 1 µM; HEK293T, 24 h; WST-8; normalized to 0.1% DMSO; single replicates
[2] = system: NF-κB activity in HEK293 NF-κB reporter cells; experiment: NF-kB activity assay (GFP reporter, ionomycin/PMA); assay type: cell-based; details: for Mean NFκB response: n=3
Description: Fig. 6 Application of the NR3 CG set.
After 24 h, cells were incubated with the test compounds solubilized with 0.1% DMSO in the same medium without puromycin. After 4 h incubation, ionomycin (100 ng/mL) and phorbol-12-myristat-13-acetate (PMA, 10 ng/mL) was added, and the cells were imaged for confluence and GFP expression every 90 min. over 24 h using a Tecan SPARK Cyto (Tecan). The number of GFP expressing cells was normalized to confluence in each sample. Each sample was repeated in three biologically independent experiments.

HEK293T cells [3] = experiment: Cytotoxicity: apoptosis induction (caspase-3/7 DEVD fluorogenic DNA dye); details: 1 µM; HEK293T, 24 h; apoptotic cell count normalized to 0.1% DMSO; single replicates
MAPK1 = biological target: T7, MAPK1 (Homo sapiens, UniProt P28482); experiment: Liability panel screening by DSF: MAPK1; assay type: binding; details: DSF, 20 µM, n=2; read-out: Mean ΔTM MAPK1
T7 construct: made in house
Description: as §1, §2, §3, §4

CDK2 = biological target: T8, CDK2 (Homo sapiens, UniProt P24941); experiment: Liability panel screening by DSF: CDK2; assay type: binding; details: DSF, 20 µM, n=2; read-out: Mean ΔTM CDK2
T8 construct: made in house
Description: as §1, §2, §3, §4

HEK293T cells [4] = experiment: Cytotoxicity: necrosis induction (red fluorescent dye for permeable plasma membranes); assay type: cell-based; details: 1 µM, 24 h, necrotic cell count normalized to 0.1% DMSO, single replicates;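 further: compounds applied in DMEM high glucose with 0.1% FCS and 0.1% DMSO, necrotic HEK293T cells counted by red staining of cells whose plasma membranes had become permeable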
AURKA = biological target: T9, AURKA (Homo sapiens, UniProt O14965); experiment: Liability panel screening by DSF: AURKA; assay type: binding; details: DSF, 20 µM, n=2; read-out: Mean ΔTM AURKA
T9 construct: made in house
T9 sequence (O14965 1-403): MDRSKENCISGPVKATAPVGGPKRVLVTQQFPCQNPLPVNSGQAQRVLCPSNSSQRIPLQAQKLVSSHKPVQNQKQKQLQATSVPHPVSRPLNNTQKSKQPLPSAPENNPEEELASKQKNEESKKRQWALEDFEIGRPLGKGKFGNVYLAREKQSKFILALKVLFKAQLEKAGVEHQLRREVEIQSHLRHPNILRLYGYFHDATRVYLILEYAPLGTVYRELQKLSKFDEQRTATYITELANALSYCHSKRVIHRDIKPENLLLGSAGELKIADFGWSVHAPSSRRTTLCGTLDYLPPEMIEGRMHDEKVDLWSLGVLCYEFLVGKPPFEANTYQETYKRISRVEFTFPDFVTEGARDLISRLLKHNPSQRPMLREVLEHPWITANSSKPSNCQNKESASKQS
Description: as §1, §2, §3, §4

CSNK1D = biological target: T10, CSNK1D (Homo sapiens, UniProt P48730); experiment: Liability panel screening by DSF: CSNK1D; assay type: binding; details: DSF, 20 µM, n=2; read-out: Mean ΔTM CSNK1D
T10 construct: made in house
Description: as §1, §2, §3, §4

HEK293T cells [5] = experiment: Cytotoxicity: growth-rate (change in confluence over 24 h); details: 1 µM, normalized to 0.1% DMSO control, single replicates (n=1...)
[6] = system: ATF6 activity in Hela ATF6 reporter cells; experiment: Endoplasmic reticulum stress assay (ATF6 Renilla luciferase reporter, tunicamycin); assay type: cell-based; details: Hela ATF6 reporter cells; tunicamycin 100 ng/mL, 18 h; compounds at recommended concentrations; n = 5
Description: After 24 h, cells were incubated with the test compounds solubilized with 0.1% DMSO in the same medium without puromycin. After 4 h incubation, tunicamycin (100 ng/mL) was added. After another 18 h incubation, cells were assayed for renilla luminescence using DualGlo reagent (Promega) on a Tecan SPARK Cyto (Tecan). Test samples were normalized to the 0.1% DMSO control. Each sample was repeated in five biologically independent experiments.

T5 sequence (P22607 23-806, species assumed): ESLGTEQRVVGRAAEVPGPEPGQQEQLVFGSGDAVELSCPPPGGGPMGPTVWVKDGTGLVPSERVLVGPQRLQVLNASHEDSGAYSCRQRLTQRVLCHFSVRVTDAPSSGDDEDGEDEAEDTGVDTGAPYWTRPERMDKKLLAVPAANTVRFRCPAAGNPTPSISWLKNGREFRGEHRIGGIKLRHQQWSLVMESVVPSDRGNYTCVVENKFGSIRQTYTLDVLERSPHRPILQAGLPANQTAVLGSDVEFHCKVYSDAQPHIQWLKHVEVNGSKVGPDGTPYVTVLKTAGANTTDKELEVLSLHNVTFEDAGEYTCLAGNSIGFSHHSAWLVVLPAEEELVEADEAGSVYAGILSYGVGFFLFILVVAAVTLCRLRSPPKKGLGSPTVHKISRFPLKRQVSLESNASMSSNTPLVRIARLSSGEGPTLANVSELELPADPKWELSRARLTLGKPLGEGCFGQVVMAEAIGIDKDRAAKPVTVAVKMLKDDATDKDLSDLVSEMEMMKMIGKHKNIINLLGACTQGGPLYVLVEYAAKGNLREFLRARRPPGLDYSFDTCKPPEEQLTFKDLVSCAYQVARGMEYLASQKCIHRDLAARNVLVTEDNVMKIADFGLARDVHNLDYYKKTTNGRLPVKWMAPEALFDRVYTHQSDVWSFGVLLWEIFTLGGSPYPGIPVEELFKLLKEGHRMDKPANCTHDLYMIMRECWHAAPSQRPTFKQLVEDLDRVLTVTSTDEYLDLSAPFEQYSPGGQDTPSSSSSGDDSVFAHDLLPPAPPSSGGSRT
T10 sequence (P48730 whole entry, species assumed): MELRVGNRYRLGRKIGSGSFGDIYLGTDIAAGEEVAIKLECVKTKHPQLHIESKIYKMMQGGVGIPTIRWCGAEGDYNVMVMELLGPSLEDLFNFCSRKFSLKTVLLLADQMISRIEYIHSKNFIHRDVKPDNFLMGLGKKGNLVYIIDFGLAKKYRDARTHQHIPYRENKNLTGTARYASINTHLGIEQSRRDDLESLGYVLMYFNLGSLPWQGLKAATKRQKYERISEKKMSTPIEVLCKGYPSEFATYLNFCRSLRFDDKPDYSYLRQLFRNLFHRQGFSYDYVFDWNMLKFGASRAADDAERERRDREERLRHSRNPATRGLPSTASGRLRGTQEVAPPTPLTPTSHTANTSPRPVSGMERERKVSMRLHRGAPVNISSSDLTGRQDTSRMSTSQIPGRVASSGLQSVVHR
T6 sequence (P49841 whole entry, species assumed): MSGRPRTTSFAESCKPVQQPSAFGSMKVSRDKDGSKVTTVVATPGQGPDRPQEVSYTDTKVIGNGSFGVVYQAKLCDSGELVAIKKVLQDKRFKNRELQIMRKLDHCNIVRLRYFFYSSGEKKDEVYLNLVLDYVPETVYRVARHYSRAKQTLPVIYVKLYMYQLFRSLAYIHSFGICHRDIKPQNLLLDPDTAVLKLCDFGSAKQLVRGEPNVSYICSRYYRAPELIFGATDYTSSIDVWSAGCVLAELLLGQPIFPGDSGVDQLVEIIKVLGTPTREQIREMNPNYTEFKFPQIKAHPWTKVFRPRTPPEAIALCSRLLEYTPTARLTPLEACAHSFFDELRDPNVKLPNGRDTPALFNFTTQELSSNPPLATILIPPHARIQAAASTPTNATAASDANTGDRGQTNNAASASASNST
T7 sequence (P28482 whole entry, species assumed): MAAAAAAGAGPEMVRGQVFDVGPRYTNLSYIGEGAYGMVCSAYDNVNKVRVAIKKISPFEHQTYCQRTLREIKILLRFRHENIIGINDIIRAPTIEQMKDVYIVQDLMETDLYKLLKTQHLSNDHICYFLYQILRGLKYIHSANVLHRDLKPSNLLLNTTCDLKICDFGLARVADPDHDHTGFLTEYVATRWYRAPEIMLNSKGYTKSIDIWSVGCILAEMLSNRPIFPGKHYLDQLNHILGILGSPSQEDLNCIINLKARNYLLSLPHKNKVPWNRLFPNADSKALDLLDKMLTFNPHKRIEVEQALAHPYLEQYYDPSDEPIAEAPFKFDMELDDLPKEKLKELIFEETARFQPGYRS
T4 sequence (P00519 whole entry, species assumed): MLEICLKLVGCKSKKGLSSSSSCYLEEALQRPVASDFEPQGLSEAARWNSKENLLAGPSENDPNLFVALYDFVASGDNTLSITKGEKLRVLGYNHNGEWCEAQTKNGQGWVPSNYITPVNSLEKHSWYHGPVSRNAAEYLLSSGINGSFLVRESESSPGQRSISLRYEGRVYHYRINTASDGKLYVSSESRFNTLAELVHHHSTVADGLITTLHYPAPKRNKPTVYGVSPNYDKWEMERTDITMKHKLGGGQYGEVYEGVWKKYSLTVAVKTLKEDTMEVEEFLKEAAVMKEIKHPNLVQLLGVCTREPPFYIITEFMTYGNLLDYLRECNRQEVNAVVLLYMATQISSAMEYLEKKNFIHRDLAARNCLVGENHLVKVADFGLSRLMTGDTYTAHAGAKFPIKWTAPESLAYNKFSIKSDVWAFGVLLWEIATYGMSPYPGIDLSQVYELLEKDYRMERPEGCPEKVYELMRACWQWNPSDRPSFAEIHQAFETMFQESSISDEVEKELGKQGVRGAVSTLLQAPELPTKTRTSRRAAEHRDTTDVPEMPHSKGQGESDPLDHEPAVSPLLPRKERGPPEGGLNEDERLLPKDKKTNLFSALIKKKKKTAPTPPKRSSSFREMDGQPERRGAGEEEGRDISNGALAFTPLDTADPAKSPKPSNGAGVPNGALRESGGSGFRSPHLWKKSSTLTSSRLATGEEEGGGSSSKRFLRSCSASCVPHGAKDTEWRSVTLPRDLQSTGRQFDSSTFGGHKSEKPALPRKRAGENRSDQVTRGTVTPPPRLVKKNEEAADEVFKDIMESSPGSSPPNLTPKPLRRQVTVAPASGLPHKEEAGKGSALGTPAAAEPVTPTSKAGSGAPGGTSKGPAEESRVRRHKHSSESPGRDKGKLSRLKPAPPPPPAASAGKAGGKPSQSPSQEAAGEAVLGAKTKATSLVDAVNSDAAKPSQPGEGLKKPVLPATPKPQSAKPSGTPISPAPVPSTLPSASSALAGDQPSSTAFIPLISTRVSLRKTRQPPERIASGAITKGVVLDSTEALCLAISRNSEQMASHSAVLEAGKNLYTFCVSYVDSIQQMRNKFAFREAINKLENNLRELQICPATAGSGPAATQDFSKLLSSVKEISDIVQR

Structure (SMILES)	ΔTm at 20 µM (BRPF1) [°C]	ΔTm at 20 µM (BRD4) [°C]	ΔTm at 20 µM (TRIM24) [°C]	ΔTm at 20 µM (ABL1) [°C]	ΔTm at 20 µM (FGFR3) [°C]	ΔTm at 20 µM (GSK3B) [°C]	Metabolic activity [MA] (HEK293T cells [1])	Mean NFκB response ([2]; 1 µM, 1,5 h)	Mean NFκB response ([2]; 1 µM, 4,5 h)	Mean NFκB response ([2]; 1 µM, 7,5 h)	Mean NFκB response ([2]; 1 µM, 10,5 h)	Mean NFκB response ([2]; 1 µM, 13,5 h)	Mean NFκB response ([2]; 1 µM, 16,6 h)	Mean NFκB response ([2]; 1 µM, 19,5 h)	Mean NFκB response ([2]; 1 µM, 22,5 h)	Mean NFκB response ([2]; 1 µM, 3 h)	Mean NFκB response ([2]; 1 µM, 6 h)	Mean NFκB response ([2]; 1 µM, 9 h)	Mean NFκB response ([2]; 1 µM, 12 h)	Mean NFκB response ([2]; 1 µM, 15 h)	other results
Cc1c(N2C(=O)C3C(O)CCN3C2=O)ccc(C#N)c1Cl (stereo not shown) [BMS564929]	0.06	-2.89	0.44	0.02	-0.04	-0.71	1.09 and 1.08 and 0.94 and 1.07 (2×) and 0.99 and 0.92 and 1.10	2292.65 GFP+-cells/confluence ∙ 1000	2993.37 GFP+-cells/confluence ∙ 1000	6319.46 GFP+-cells/confluence ∙ 1000	12250.00 GFP+-cells/confluence ∙ 1000	16870.00 GFP+-cells/confluence ∙ 1000	20913.33 GFP+-cells/confluence ∙ 1000	23700.00 GFP+-cells/confluence ∙ 1000	25766.67 GFP+-cells/confluence ∙ 1000	2425.99 GFP+-cells/confluence ∙ 1000	4160.27 GFP+-cells/confluence ∙ 1000	9390.00 GFP+-cells/confluence ∙ 1000	14670.00 GFP+-cells/confluence ∙ 1000	19226.67 GFP+-cells/confluence ∙ 1000	Mean NFκB response ([2]; 1 µM, 18 h): 22263.33 GFP+-cells/confluence ∙ 1000; Mean NFκB response ([2]; 1 µM, 21 h): 24826.67 GFP+-cells/confluence ∙ 1000; Mean NFκB response ([2]; 1 µM, 24 h): 26713.33 GFP+-cells/confluence ∙ 1000; Apoptosis induction [AI] (HEK293T cells [3]): 0.43 and 0.64 and 0.69 and 0.74 and 0.68 and 1.04; ΔTm at 20 µM (MAPK1): 0.12 °C; ΔTm at 20 µM (CDK2): 0.04 °C; Necrosis induction [NI] (HEK293T cells [4]): 0.79 and 0.76 and 0.66 and 0.82; ΔTm at 20 µM (AURKA): -2.25 °C; ΔTm at 20 µM (CSNK1D): -0.38 °C
N#CC(Cc1ccc(O)cc1)c1ccc(O)cc1 (stereo not shown) [Diarylpropionitrile]	-1.46	0.26	0.03	0.17	0.51	0.0529	1.05 and 0.99 and 0.90 and 1.01 and 1.03 and 0.93 and 1.00 and 1.10	3165.75 GFP+-cells/confluence ∙ 1000	4108.72 GFP+-cells/confluence ∙ 1000	9286.59 GFP+-cells/confluence ∙ 1000	18231.50 GFP+-cells/confluence ∙ 1000	25916.56 GFP+-cells/confluence ∙ 1000	31500.03 GFP+-cells/confluence ∙ 1000	35046.16 GFP+-cells/confluence ∙ 1000	38151.13 GFP+-cells/confluence ∙ 1000	3363.39 GFP+-cells/confluence ∙ 1000	5664.74 GFP+-cells/confluence ∙ 1000	14005.24 GFP+-cells/confluence ∙ 1000	22519.63 GFP+-cells/confluence ∙ 1000	29221.60 GFP+-cells/confluence ∙ 1000	Growth rate [GR] (HEK293T cells [5]): 0.79 (2×) and 0.00 (2×) and 0.84 and 1.00 and 0.91 and 0.88 and 1.61 and 5.04; ATF6 activity (tunicamycin-induced endoplasmic reticulum stress) [6]: failed to reduce ATF6 activity; Mean NFκB response ([2]; 1 µM, 18 h): 33392.36 GFP+-cells/confluence ∙ 1000; Mean NFκB response ([2]; 1 µM, 21 h): 36386.11 GFP+-cells/confluence ∙ 1000; Mean NFκB response ([2]; 1 µM, 24 h): 39415.66 GFP+-cells/confluence ∙ 1000; NF-κB activity (inflammatory response to ionomycin/PMA) ([2]; HEK293 NF-κB reporter cells, compounds at recommended concentrations, imaged over 24 h, n = 3): no impact on NF-κB activity; Apoptosis induction [AI] (HEK293T cells [3]): 0.70 and 1.46 and 0.65 and 1.11 and 1.49 and 0.58; ΔTm at 20 µM (MAPK1): 0.0328 °C; ΔTm at 20 µM (CDK2): 0.74 °C; Necrosis induction [NI] (HEK293T cells [4]): 1.10 and 0.85 and 0.90 and 1.44; ΔTm at 20 µM (AURKA): 0.16 °C; ΔTm at 20 µM (CSNK1D): 0.0747 °C
